Entries after “also recorded” stand apart in the source; their conditions may differ. Where two headings read alike, the source gives them in different places.
Assays:
[1] = Solid storage stability test; assay type: physicochemical; conditions: for chemical and physical stability after storage: solid/25° C./60% RH/open/1 week and/or solid/60° C./closed container/1 week
Protocol: Each amorphous salt solid was weighed (two 2 mg samples were weighed for purity testing after solid storage stability study, and one 10 mg sample was weighed for XRPD testing after solid storage stability study) and placed in a glass vial. In a 25° C./60% RH solid storage stability test, the amorphous salt solid was placed in a 25° C./60% RH constant temperature and humidity chamber, and placed in the dark for 1 week (i.e. “solid/25° C./60% RH/open/1 week”), and in a 60° C. solid storage stability test, the amorphous salt solid was sealed in an oven at 60° C. and heated for 1 week in the dark (i.e. “solid/60° C./closed container/1 week”). Then the sample was taken out for purity testing, crystal form detection and appearance observation, respectively.

[2] = Solid solubility test (2 h and 24 h); assay type: physicochemical; conditions: for Solubility measured at 2 h: 37° C., based on free base
Protocol: 5 samples were weighed for each amorphous salt solid (equivalent to 20 mg of free base), and 10 mL of the following solvents were respectively added: 0.1N HCl solution (pH 1.0), 50 mM phosphate buffer (pH 4.5), FeSSIF-V1 (pH 5.0), FaSSIF-V1 (pH 6.5) and SGF (pH 2.0), and stirred at 37° C. for 2 h. The suspension was then centrifuged at 37° C., the supernatant was measured for solubility by HPLC, and the solid fraction was measured for XRPD. The target solubility was at least 2 mg (based on free base)/mL.

[3] = Drug absorption test in male Han-Wister rats; assay type: in vivo; conditions: for F: intragastric versus intravenous administration, doses 80, 100, 93.2, 81.1 mg/kg for Example 1, 2, 3, 4
Protocol: Intravenous administration: Three healthy male Han-Wister rats having a body weight of 250-350 g were provided by Beijing Vital River Laboratory Animal Technology Co., Ltd. The above compound of Example 1 was administered intravenously at the doses (calculated based on free base) listed in Table 1 below, respectively. Before administration and 15 min, 0.5 h, 1.0 h, 2.0 h, 4.0 h, 8.0 h, 12 h, and 24 h after administration, jugular vein puncture was performed to take 0.05 mL of blood, plasma was separated and prepared, and the drug concentration in the plasma was measured by liquid chromatography-tandem mass spectrometry (LC-MS) to obtain a drug concentration-time curve.
Intragastric administration: Twelve healthy male Han-Wister rats having a body weight of 250-350 g were provided by Beijing Vital River Laboratory Animal Technology Co., Ltd. and randomly divided into 4 groups. The above compounds of Example 1, Example 2, Example 3 and Example 4 were administered intragastrically at the doses (calculated based on free base) listed in Table 2 below, respectively. Before administration and 15 min, 0.5 h, 1.0 h, 2.0 h, 4.0 h, 8.0 h, 12 h, and 24 h after administration, jugular vein puncture was performed to take 0.05 mL of blood, plasma was separated and prepared, and the drug concentration in the plasma was measured by liquid chromatography-tandem mass spectrometry (LC-MS) to obtain a drug concentration-time curve.

[4] = Solid solubility test (2 h and 24 h); assay type: physicochemical; conditions: for Solubility measured at 24 h: 37° C., based on free base
[5] = Chemical and physical stability of the salts at the end of the preparation; assay type: physicochemical
Description: It is crucial for drug development whether the salts obtained as above have chemical and physical stability at the end of the preparation.

[6] = Test BS1: solid/25° C./60% RH/open/1 week
[7] = Test BS2: solid/60° C./closed container/1 week
[8] = intragastric administration, doses 80, 100, 93.2, 81.1 mg/kg for Example 1, 2, 3, 4 (calculated based on free base)

Row | Structure (SMILES) | Color [1, 6] | Morphology (XRPD crystallinity) [1, 6] | Morphology (agglomeration, appearance) [1, 6] | Color [1, 7] | Morphology (XRPD crystallinity) [1, 7] | pH measured at 2 h ([2]; Test ES4: FaSSIF-V1 (pH 6.5)) | Solubility measured at 2 h ([2]; Test ES4: FaSSIF-V1 (pH 6.5)) [mg/mL] | AUC0-t [3, 8] [ng·h/mL] | Cmax [3, 8] [ng/mL] | F [3] [%] | Morphology (agglomeration, appearance) [1, 7] | T1/2 [3, 8] [h] | also measured
1 | C=CC(=O)Nc1cc(Nc2ncnc(-c3cn(C)c4ccccc34)n2)c(OC)cc1N(C)CCN(C)C [Example 1] | no color change | amorphous (FIG. 89), | no agglomeration | no color change | medium crystallinity | (6.8) | >2 | 3968 | 583 | 11.1 | – | – | physical and chemical stability (in words) ([1]; solid/25° C./60% RH/open/1 week, listed as amorphous free base): good physical and chemical stability; physical and chemical stability (in words) ([1]; solid/60° C./closed container/1 week, listed as amorphous free base): transformed from amorphous to a moderate crystallinity; half-life ([3]; male, Han-Wister, rat, plasma, iv, 1 mg/kg, intravenous administration, 1.0 mg/kg (calculated based on free base), rat plasma): 2.99 h; AUC0-t ([3]; male, Han-Wister, rat, plasma, iv, 1 mg/kg, intravenous administration, 1.0 mg/kg (calculated based on free base), rat plasma, read-out: AUC0-t): 446 ng·h/mL; Cmax ([3]; male, Han-Wister, rat, plasma, iv, 1 mg/kg, intravenous administration, 1.0 mg/kg (calculated based on free base), rat plasma, read-out: Cmax): 364 ng/mL; half-life ([3]; male, Han-Wister, rat, plasma, po, 81.1 mg/kg, intragastric administration, doses 80, 100, 93.2, 81.1 mg/kg for Example 1, 2, 3, 4 (calculated based on free base)): 3.36 h; pH measured at 24 h ([4]; Test ES3: FeSSIF-VI (pH 5.0)): (5.0); Solubility measured at 24 h ([4]; Test ES3: FeSSIF-VI (pH 5.0)): >2000 µg/mL; pH measured at 24 h ([4]; Test ES4: FaSSIF-VI (pH 6.5)): (6.8); Solubility measured at 24 h ([4]; Test ES4: FaSSIF-VI (pH 6.5)): >2000 µg/mL
2 | C=CC(=O)Nc1cc(Nc2ncnc(-c3cn(C)c4ccccc34)n2)c(OC)cc1N(C)CCN(C)C [Example 2] | no color change | amorphous (FIG. 90), | no agglomeration | no color change | amorphous (FIG. 90), | (6.5) | >2 | 13060 | 1024 | 29.3 | no agglomeration | 6.65 | chemical and physical stability after storage ([1]; listed as 1 eq. hydrochloride salt): chemically unstable; chemical and physical stability after storage ([1]; listed as amorphous 1 eq. hydrochloride salt): chemically unstable; physical and chemical stability (in words) ([1]; solid/25° C./60% RH/open/1 week, listed as amorphous 1 eq. hydrochloride salt): good physical and chemical stability
3 | C=CC(=O)Nc1cc(Nc2ncnc(-c3cn(C)c4ccccc34)n2)c(OC)cc1N(C)CCN(C)C [Example 3] | slight color change | amorphous (FIG. 91), | partial agglomeration | no color change | amorphous (FIG. 91), | (6.1) | >2 | 11213 | 1020 | 27.0 | no agglomeration | 6.04 | chemical and physical stability after storage ([1]; listed as 2 eq. hydrochloride salt): physically unstable; chemical and physical stability after storage ([1]; listed as amorphous 2 eq. hydrochloride salt): physically unstable; physical and chemical stability (in words) ([1]; solid/25° C./60% RH/open/1 week, listed as amorphous 2 eq. hydrochloride salt): slight color change and showed a certain hygroscopicity (partial agglomeration); physical and chemical stability (in words) ([1]; solid/60° C./closed container/1 week, listed as amorphous 2 eq. hydrochloride salt): good physical and chemical stability
4 | C=CC(=O)Nc1cc(Nc2ncnc(-c3cn(C)c4ccccc34)n2)c(OC)cc1N(C)CCN(C)C [Example 4] | no color change | amorphous (FIG. 93), | no agglomeration | no color change | amorphous (FIG. 93), | (6.5) | >2 | 9703 | 1376 | 26.8 | no agglomeration | 6.17 | chemical and physical stability after storage ([1]; listed as 1 eq. mesylate salt): chemically and physically stable; chemical and physical stability after storage ([1]; listed as amorphous 1 eq. mesylate salt): chemically and physically stable; physical and chemical stability (in words) ([1]; solid/25° C./60% RH/open/1 week, listed as amorphous 1 eq. mesylate salt): good physical and chemical stability; physical and chemical stability (in words) ([1]; solid/60° C./closed container/1 week, listed as amorphous 1 eq. mesylate salt): good physical and chemical stability; pH measured at 24 h ([4]; Test ES3: FeSSIF-VI (pH 5.0)): (5.0); Solubility measured at 24 h ([4]; Test ES3: FeSSIF-VI (pH 5.0)): >2000 µg/mL; pH measured at 24 h ([4]; Test ES4: FaSSIF-VI (pH 6.5)): (6.6); Solubility measured at 24 h ([4]; Test ES4: FaSSIF-VI (pH 6.5)): >2000 µg/mL
5 | C=CC(=O)Nc1cc(Nc2ncnc(-c3cn(C)c4ccccc34)n2)c(OC)cc1N(C)CCN(C)C [Example 10] | no color change | no crystal form | – | no color change | no crystal form | (6.4) | – | – | – | – | – | – | chemical and physical stability after storage ([1]; listed as 1 eq. hydrobromide salt): chemically and physically stable; chemical and physical stability after storage ([1]; listed as crystalline 1 eq. hydrobromide salt): chemically and physically stable; physical and chemical stability (in words) ([1]; solid/25° C./60% RH/open/1 week, listed as crystalline 1 eq. hydrobromide salt): good physical and chemical stability; physical and chemical stability (in words) ([1]; solid/60° C./closed container/1 week, listed as crystalline 1 eq. hydrobromide salt): good physical and chemical stability; XRPD measured at 2 h (solid fraction) ([2]; Test ES4: FaSSIF-V1 (pH 6.5)): hydrobromide; Solubility measured at 2 h ([2]; Test ES5: SGF (pH 2.0)): >2 mg/ml mg/mL
6 | C=CC(=O)Nc1cc(Nc2ncnc(-c3cn(C)c4ccccc34)n2)c(OC)cc1N(C)CCN(C)C [Example 12] | – | – | – | – | – | – | – | – | – | – | – | – | chemical and physical stability at the end of the preparation ([5]; listed as amorphous sulfate salt): chemically stable; also recorded: physically unstable due to a certain hygroscopicity
7 | C=CC(=O)Nc1cc(Nc2ncnc(-c3cn(C)c4ccccc34)n2)c(OC)cc1N(C)CCN(C)C [Example 13] | – | – | – | – | – | – | – | – | – | – | – | – | chemical and physical stability at the end of the preparation ([5]; listed as amorphous 2 eq. p-tosylate salt): chemically stable; also recorded: physically unstable due to caking and fusion to a glassy state upon short exposure to environmental conditions
8 | C=CC(=O)Nc1cc(Nc2ncnc(-c3cn(C)c4ccccc34)n2)c(OC)cc1N(C)CCN(C)C [Example 14] | – | – | – | – | – | – | – | – | – | – | – | – | chemical and physical stability at the end of the preparation ([5]; listed as amorphous sulfosalicylate salt (Sample No. Y11526-25-FD13-1,4-dioxane)): chemically and physically stable
9 | C=CC(=O)Nc1cc(Nc2ncnc(-c3cn(C)c4ccccc34)n2)c(OC)cc1N(C)CCN(C)C [Example 15] | – | – | – | – | – | – | – | – | – | – | – | – | chemical and physical stability at the end of the preparation ([5]; listed as amorphous sulfosalicylate salt (Sample No. Y11526-25-FD12-1,4-dioxane)): chemically and physically stable

Source: patent US20240391902A1, “Crystalline Form of Compound” (Shenzhen Forward Pharmaceuticals Co., Limited, priority 2020, published 2024)
